# Source: ChEMBL document CHEMBL4837196, “Cytotoxic and Antiangiogenetic Xanthones Inhibiting Tumor Proliferation and Metastasis from Garcinia xipshuanbannaensis” (J Nat Prod, 2021)
# Active and inactive are the calls of the source. No cut-off for these calls is given here.
# How the values were obtained:
# HeLa [1] = assay: Cell cycle arrest in human HeLa cells assessed as accumulation at G0/G1 phase at 6 uM measured after 48 hrs by PI-staining based flow cytometric analysis (reference value: 40.03%); type: functional
# HeLa [2] = assay: Cell cycle arrest in human HeLa cells assessed as accumulation at G2 phase at 6 uM measured after 48 hrs by PI-staining based flow cytometric analysis (reference value: 8.58%); type: functional
# HepG2 [3] = assay: Cytotoxicity against human HepG2 cells assessed as inhibition of cell proliferation incubated for 48 hrs by MTT assay; type: functional, cell-based; settings: HepG2, 48 h
# HeLa [4] = assay: Cell cycle arrest in human HeLa cells assessed as accumulation at G2 phase at 24 uM measured after 48 hrs by PI-staining based flow cytometric analysis (reference value: 8.58%); type: functional
# HeLa [5] = assay: Induction of apoptosis in human HeLa cells assessed as viable cells at 12 uM measured after 48 hrs by Annexin V-FITC/propidium iodide staining based flow cytometric analysis (reference value: 83.1 %); type: functional; settings: read-out: Activity
# HeLa [6] = assay: Induction of reactive oxygen species generation in human HeLa cells assessed as increase in ROS level at 2.5 to 30 uM measured after 48 hrs by DCFH-DA staining based flow cytometric analysis; type: functional, cell-based; settings: dose 2.5-30 µM
# HeLa [7] = assay: Induction of apoptosis in human HeLa cells assessed as late apoptotic cells at 12 uM measured after 48 hrs by Annexin V-FITC/propidium iodide staining based flow cytometric analysis (reference value: 12.2 %); type: functional
# HeLa [8] = assay: Induction of apoptosis in human HeLa cells assessed as viable cells at 6 uM measured after 48 hrs by Annexin V-FITC/propidium iodide staining based flow cytometric analysis (reference value: 83.1 %); type: functional; settings: read-out: Activity
# HeLa [9] = assay: Induction of apoptosis in human HeLa cells assessed as necrotic cells at 12 uM measured after 48 hrs by Annexin V-FITC/propidium iodide staining based flow cytometric analysis (reference value: 1.32 %); type: functional
# HeLa [10] = assay: Cell cycle arrest in human HeLa cells assessed as accumulation at G2 phase at 12 uM measured after 48 hrs by PI-staining based flow cytometric analysis (reference value: 8.58%); type: functional
# HeLa [11] = assay: Induction of apoptosis in human HeLa cells assessed as early apoptotic cells at 12 uM measured after 48 hrs by Annexin V-FITC/propidium iodide staining based flow cytometric analysis (reference value: 3.34 %); type: functional
# HeLa [12] = assay: Cell cycle arrest in human HeLa cells assessed as accumulation at S phase at 6 uM measured after 48 hrs by PI-staining based flow cytometric analysis (reference value: 51.39%); type: functional
# HeLa [13] = assay: Induction of apoptosis in human HeLa cells assessed as late apoptotic cells at 24 uM measured after 48 hrs by Annexin V-FITC/propidium iodide staining based flow cytometric analysis (reference value: 12.2 %); type: functional
# K562 = assay: Cytotoxicity against human K562 cells assessed as inhibition of cell proliferation incubated for 48 hrs by MTT assay; type: functional, cell-based; settings: K562, 48 h
# HeLa [14] = assay: Induction of apoptosis in human HeLa cells assessed as viable cells at 24 uM measured after 48 hrs by Annexin V-FITC/propidium iodide staining based flow cytometric analysis (reference value: 83.1 %); type: functional; settings: read-out: Activity
# HeLa [15] = assay: Induction of apoptosis in human HeLa cells assessed as early apoptotic cells at 6 uM measured after 48 hrs by Annexin V-FITC/propidium iodide staining based flow cytometric analysis (reference value: 3.34 %); type: functional
# [16] = molecular target: Signal transducer and activator of transcription 3 (Homo sapiens) (UniProt P40763); assay: Inhibition of STAT3 phosphorylation in human HeLa cells measured after 12 hrs by western blot analysis; type: cell-based
# Sequence of Signal transducer and activator of transcription 3 (Homo sapiens) (P40763 whole entry): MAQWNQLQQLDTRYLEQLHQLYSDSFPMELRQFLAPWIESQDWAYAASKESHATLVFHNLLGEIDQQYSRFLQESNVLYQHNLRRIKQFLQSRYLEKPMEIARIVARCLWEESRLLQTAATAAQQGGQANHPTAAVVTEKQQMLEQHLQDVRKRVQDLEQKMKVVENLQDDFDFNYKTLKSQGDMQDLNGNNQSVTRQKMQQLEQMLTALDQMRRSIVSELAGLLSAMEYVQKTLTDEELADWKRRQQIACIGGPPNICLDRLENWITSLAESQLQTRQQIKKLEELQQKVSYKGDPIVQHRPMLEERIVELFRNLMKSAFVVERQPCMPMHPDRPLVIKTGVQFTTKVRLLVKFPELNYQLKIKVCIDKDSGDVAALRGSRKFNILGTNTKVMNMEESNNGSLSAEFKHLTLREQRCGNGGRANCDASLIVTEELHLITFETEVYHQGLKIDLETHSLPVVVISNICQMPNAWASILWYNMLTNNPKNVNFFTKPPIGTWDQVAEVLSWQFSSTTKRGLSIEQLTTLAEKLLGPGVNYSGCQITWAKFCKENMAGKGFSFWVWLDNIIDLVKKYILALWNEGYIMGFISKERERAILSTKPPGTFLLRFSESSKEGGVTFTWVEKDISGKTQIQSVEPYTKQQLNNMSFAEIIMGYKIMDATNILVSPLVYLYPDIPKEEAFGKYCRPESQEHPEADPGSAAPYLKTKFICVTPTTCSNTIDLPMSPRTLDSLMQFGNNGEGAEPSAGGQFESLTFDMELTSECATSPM
# HeLa [17] = assay: Induction of apoptosis in human HeLa cells assessed as necrotic cells at 6 uM measured after 48 hrs by Annexin V-FITC/propidium iodide staining based flow cytometric analysis (reference value: 1.32 %); type: functional
# HeLa [18] = assay: Cell cycle arrest in human HeLa cells assessed as accumulation at S phase at 24 uM measured after 48 hrs by PI-staining based flow cytometric analysis (reference value: 51.39%); type: functional
# HeLa [19] = assay: Induction of apoptosis in human HeLa cells assessed as early apoptotic cells at 24 uM measured after 48 hrs by Annexin V-FITC/propidium iodide staining based flow cytometric analysis (reference value: 3.34 %); type: functional
# HeLa [20] = assay: Cell cycle arrest in human HeLa cells assessed as accumulation at S phase at 12 uM measured after 48 hrs by PI-staining based flow cytometric analysis (reference value: 51.39%); type: functional
# HeLa [21] = assay: Cell cycle arrest in human HeLa cells assessed as accumulation at G0/G1 phase at 24 uM measured after 48 hrs by PI-staining based flow cytometric analysis (reference value: 40.03%); type: functional
# Danio rerio [22] = species on record: Danio rerio; assay: Antiangiogenesis activity in Tg(fli1:EGFP) transgenic zebrafish embryo assessed as change in intersegmental vessels length at 48 uM measured after 48 hrs by confocal microscopy analysis (reference value: 3233.3 micrometer); type: functional
# HeLa [23] = assay: Cytotoxicity against human HeLa cells assessed as inhibition of cell proliferation incubated for 48 hrs by MTT assay; type: functional, cell-based
# HepG2 [24] = assay: Antitumour activity against CM-Dil labeled human HepG2 cells xenografted in AB zebrafish embryo assessed as retarded tumor growth measured after 48 hrs by confocal microscopy analysis; type: functional, cell-based; settings: dose 12-48 µM
# HeLa [25] = assay: Induction of apoptosis in human HeLa cells assessed as necrotic cells at 24 uM measured after 48 hrs by Annexin V-FITC/propidium iodide staining based flow cytometric analysis (reference value: 1.32 %); type: functional
# HeLa [26] = assay: Induction of apoptosis in human HeLa cells assessed as late apoptotic cells at 6 uM measured after 48 hrs by Annexin V-FITC/propidium iodide staining based flow cytometric analysis (reference value: 12.2 %); type: functional
# [27] = Effect on STAT3 protein level in human HeLa cells at 6 to 24 uM by Western blotting; type: ADME, cell-based; settings: dose 6-24 µM
# Danio rerio [28] = species on record: Danio rerio; assay: Antiangiogenesis activity in Tg(fli1:EGFP) transgenic zebrafish embryo assessed as change in intersegmental vessels length at 24 uM measured after 48 hrs by confocal microscopy analysis (reference value: 3233.3 micrometer); type: functional
# HeLa [29] = assay: Cell cycle arrest in human HeLa cells assessed as accumulation at G0/G1 phase at 12 uM measured after 48 hrs by PI-staining based flow cytometric analysis (reference value: 40.03%); type: functional
# Danio rerio [30] = species on record: Danio rerio; assay: Antiangiogenesis activity in Tg(fli1:EGFP) transgenic zebrafish embryo assessed as change in intersegmental vessels length at 12 uM measured after 48 hrs by confocal microscopy analysis (reference value: 3233.3 micrometer); type: functional
# [31] = molecular target: Signal transducer and activator of transcription 3 (Homo sapiens) (UniProt P40763); assay: Inhibition of STAT3 activation in human HeLa cells measured after 12 hrs by western blot analysis; type: cell-based
structure (smiles),measurement,setting,value
COC(C)(C)CCc1c(O)c(O)cc2oc3c4c(c(CC=C(C)C)c(O)c3c(=O)c12)OC(C)(C)C=C4,Activity,HeLa [1],55.33%
same,Activity,HeLa [2],6.58%
same,IC50,HepG2 [3],> 10 µM
same,Activity,HeLa [4],1.71%
same,viability at 12 µM,HeLa [5],71.2%
same,Activity,HeLa [6],Active
same,Activity,HeLa [7],18%
same,viability at 6 µM,HeLa [8],75.2%
same,Activity,HeLa [9],2.63%
same,Activity,HeLa [10],4.63%
same,Activity,HeLa [11],8.23%
same,Activity,HeLa [12],38.09%
same,Activity,HeLa [13],24%
same,IC50,K562,> 10 µM
same,viability at 24 µM,HeLa [14],58.1%
same,Activity,HeLa [15],6.92%
same,inhibition,[16],Active
same,Activity,HeLa [17],1.72%
same,Activity,HeLa [18],31.09%
same,Activity,HeLa [19],13.6%
same,Activity,HeLa [20],29.59%
same,Activity,HeLa [21],67.2%
same,Activity,Danio rerio [22],1881.6 um
same,IC50,HeLa [23],9.6 µM
same,Activity,HepG2 [24],Dose-Dependent Effect
same,Activity,HeLa [25],3.76%
same,Activity,HeLa [26],16.1%
same,Activity,[27],Non-Toxic
same,Activity,Danio rerio [28],2263.2 um
same,Activity,HeLa [29],65.78%
same,Activity,Danio rerio [30],2476.5 um
same,inhibition,[31],Dose-Dependent Effect
COc1cc([C@@H]2c3cc4c(cc3[C@@H](O[C@@H]3O[C@@H]5CO[C@@H](C)O[C@H]5[C@H](O)[C@H]3O)[C@H]3COC(=O)[C@H]23)OCO4)cc(OC)c1O,Activity,HepG2 [24],Dose-Dependent Effect
COC(=O)C[C@](O)(CCCC(C)(C)O)C(=O)O[C@@H]1C(OC)=C[C@]23CCCN2CCc2cc4c(cc2[C@H]13)OCO4 [OMACETAXINE MEPESUCCINATE],IC50,HeLa [23],0.4 µM
